Source: patent US12396984B2, “Managing microbial dysbiosis with temocillin” (Entasis Therapeutics, Inc., priority 2019, dated 2025)
In brackets after ≈: the same amount, converted by molar mass. Where two headings read alike, the source gives them in different places.

Legend:
[1] = system: ATCC 23272 Lactobacillus reuteri; experiment: Agar-dilution antibacterial assay under anaerobic conditions; format: cell-based; conditions: Limosilactobacillus reuteri, ATCC23272, Firmicutes
Experimental: (§1) Representatives of human gut anaerobic commensals belonging to the 3 major phyla, Firmicutes, Actinobacteria and Bacteroidetes were tested in standard agar-dilution antibacterial assays run under anaerobic conditions. Firmicutes and Actinobacteria are part of the healthy human gut and their levels are compromised in Crohn's patients.

[2] = system: MMX 10069 Bifidobacterium adolescentis; experiment: as above; format: cell-based; conditions: Actinobacteria
Experimental: as §1

[3] = system: MMX 6660 Streptococcus intermedius; experiment: as above; format: cell-based; conditions: Firmicutes
Experimental: as §1

[4] = system: MMX 9711 Bacteroides salyersiae; experiment: as above; format: cell-based; conditions: Bacteroidetes
Experimental: as §1

[5] = system: ATCC 15702 Bifidobacterium infantis; experiment: as above; format: cell-based; conditions: ATCC15702, Actinobacteria
Experimental: as §1

[6] = system: MMX 1722 Lactobacillus casei; experiment: as above; format: cell-based; conditions: Lacticaseibacillus casei, Firmicutes
Experimental: as §1

[7] = system: ATCC 25986 Collinsella aerofaciens; experiment: as above; format: cell-based; conditions: ATCC25986, Actinobacteria
Experimental: as §1

[8] = system: MMX 3478 Bacteroides fragilis; experiment: as above; format: cell-based; conditions: Bacteroidetes
Experimental: as §1

[9] = system: Firmicutes, Actinobacteria and Bacteroidetes; experiment: Agar-dilution antibacterial assay, human gut anaerobic commensals (panel summary); format: cell-based; conditions: for antibacterial activity against firmicutes, actinobacteria and bacteroidetes (normal GI flora): summary in words
Experimental: as §1

[10] = system: MMX 9797 Clostridium innocuum; experiment: Agar-dilution antibacterial assay under anaerobic conditions; format: cell-based; conditions: Firmicutes
Experimental: as §1

[11] = system: ATCC 12290 Bacteroides thetaiotaomicron; experiment: microbe, parasite or virus in culture; format: cell-based
Experimental: as §1

[12] = system: Crohn's AIEC Isolates; conditions: AIEC Crohn's clinical isolates
[13] = system: AIEC strain (Phylotype D); experiment: GI AIEC decolonization murine model; format: in vivo, C57BL/6J mice; conditions: 30 mg/kg by oral gavage, FIG. 1
Experimental: A GI AIEC decolonization murine model studies were performed using a previously published murine model as the basis and run in accordance with animal ethical guidelines at an external contract research organization. Healthy C57BL/6J mice were first administered streptomycin by oral gavage. An AIEC strain (Phylotype D) was then administered at approximately 1-5×10^6 cfu per mouse by oral gavage and fecal pellets were enumerated for AIEC burden. Upon stable colonization (usually after 48 h post-AIEC administration), mice were sorted into three groups of 4 animals each. […] The third group was the control and was given an equivalent volume of sterile saline by oral gavage. Fecal pellets were recovered at various times as indicated on the X-axis of FIG. 1 and AIEC burden quantified by dilution and plating. Two successive fecal pellets were recovered from each mouse per group to sufficiently power the data.

[14] = system: gut microbiome; experiment: Post-treatment measurement of microbiome health (16S rRNA gene sequencing of fecal pellets); format: in vivo, mice; conditions: 30 mg/kg oral gavage once a day for 3 days, p<0.05
Experimental: Mice were dosed once a day for 3 consecutive days post AIEC stable GI colonization. Fecal pellets from four mice (1-2 per mouse) were pooled and subjected to bacterial DNA enrichment and analyzed using the Illumina MiSeq 2. Bacterial abundance and diversity was quantified using 16S rRNA gene sequencing data, analyzed and compared with naïve mice.

[15] = system: Crohn's AIEC Isolates; experiment: microbe, parasite or virus in culture; conditions: Escherichia coli
[16] = ATCC12290, Bacteroidetes, anaerobic agar dilution, read-out: MIC

Structure (SMILES) | MIC [1] [µg/mL] | MIC [2] [µg/mL] | MIC [3] [µg/mL] | MIC [4] [µg/mL] | MIC [5] [µg/mL] | MIC [6] [µg/mL] | MIC [7] [µg/mL] | MIC [8] [µg/mL] | antibacterial activity against firmicutes, actinobacteria and bacteroidetes (normal GI flora) [9] | MIC [10] [µg/mL] | MIC [11, 16] [µg/mL] | other results
O=C(O)c1cn(C2CC2)c2cc(N3CCNCC3)c(F)cc2c1=O [Ciprofloxacin] | 32 (≈ 96.6 µM) | 32 (≈ 96.6 µM) | 1 (≈ 3.02 µM) | 16 (≈ 48.3 µM) | 4 (≈ 12.1 µM) | 1 (≈ 3.02 µM) | 0.5 (≈ 1.51 µM) | 16 (≈ 48.3 µM) | broad potent antibacterial activities | – | – | –
Cc1ncc([N+](=O)[O-])n1CCO [Metronidazole] | > 64 | 8 (≈ 46.7 µM) | > 64 | 2 (≈ 11.7 µM) | 8 (≈ 46.7 µM) | > 64 | 1 (≈ 5.84 µM) | 8 (≈ 46.7 µM) | broad potent antibacterial activities | 1 (≈ 5.84 µM) | – | MIC ([11]; ATCC12290): 0.25 µg/mL (≈ 1.46 µM)
CO[C@H]1/C=C/O[C@@]2(C)Oc3c(C)c(O)c4c(O)c(c5c(nc6cc(C)ccn65)c4c3C2=O)NC(=O)/C(C)=C\C=C\[C@H](C)[C@H](O)[C@@H](C)[C@@H](O)[C@@H](C)[C@H](OC(C)=O)[C@@H]1C [Rifaximin] | 0.06 (≈ 0.0763 µM) | 0.5 (≈ 0.636 µM) | 0.5 (≈ 0.636 µM) | 0.5 (≈ 0.636 µM) | 0.125 (≈ 0.159 µM) | 0.25 (≈ 0.318 µM) | ≤ 0.03 | 0.25 (≈ 0.318 µM) | broad potent antibacterial activities | > 32 | ≤ 0.03 | –
CO[C@@]1(NC(=O)C(C(=O)O)c2ccsc2)C(=O)N2[C@@H](C(=O)O)C(C)(C)S[C@@H]21 (stereo partly drawn) [Temocillin, temocillin] | > 256 | > 256 | > 256 | > 256 | > 256 | > 256 | > 256 | 256 (≈ 618 µM) | little or no effect on the normal GI flora | > 256 | > 256 | antibacterial activity vs. ciprofloxacin resistant isolates [12]: maintains antibacterial activity vs. ciprofloxacin resistant isolates; AIEC burden in feces (log10 bacterial burden) [13]: effective at lowering AIEC burden in the murine GI tract and performed as well as the current standard-of-care antibiotic, ciprofloxacin; AIEC burden in feces (log10 bacterial burden) ([13]; listed as temocillin): effective at lowering the AIEC burden in the murine GI tract; AIEC burden after cessation of treatment (rebound) ([13]; post-treatment): effective at maintaining the AIEC burden low for days after cessation of treatment; time AIEC bacterial growth remained low after treatment ([13]; post-treatment): at least 7 days; MIC ([9]; certain firmicutes, actinobacteria and bacteroidetes): > 256 µg/mL; richness (number of OTUs) ([14]; FIG. 2A): comparable to the untreated (naive) mice and were higher than ciprofloxacin; diversity (Shannon index) ([14]; FIG. 2B): comparable to the untreated (naive) mice and were higher than ciprofloxacin; MIC50 [15]: 4 to 8 µg/mL (≈ 9.65 to 19.3 µM); MIC ([15]; Crohn's AIEC isolate #14): 16 µg/mL (≈ 38.6 µM); MIC ([15]; Crohn's AIEC isolate #32): 4 µg/mL (≈ 9.65 µM); MIC ([15]; Crohn's AIEC isolate #35): 16 µg/mL (≈ 38.6 µM); MIC ([15]; Crohn's AIEC isolate #40): 8 µg/mL (≈ 19.3 µM); MIC ([15]; Crohn's AIEC isolate #49): 4 µg/mL (≈ 9.65 µM); MIC ([15]; Crohn's AIEC isolate #51): 8 µg/mL (≈ 19.3 µM)
